The source of these data is patent publication US20230123863A1, “A GLIA CELL AND NEURON CO-CULTURE SYSTEM AND METHOD” (National Yang-Ming University, priority 2020, published 2023).

For assay [1], the system named is Primary rat cortical GN mix cultures. Briefly: NMDA-induced neurotoxicity in primary cortical glia-neuron (GN) mix culture, MAP2 and TUNEL staining. The assay is classed as cell-based. To be noted: 9 DIV, 30 min pretreatment with 0.1 μM 14,15-EET or 10 μM AUDA, 24 h. As for the experimental part:
Primary cortical NE cultures were prepared from embryonic day 17 SD fetal rats. The cultures were maintained in Neurobasal™ medium, and 9-10 days in vitro (DIV) culture was used for the study. Primary astrocyte cultures were prepared from SD rat pups at P1-2, with the purified astrocytes grown in 50% DMEM/50% Neurobasal™ medium containing heparin-binding EGF-like growth factor (HBEGF) or GNCM wherein GCM and NM are at a ratio of 1:1. Primary glia-neuron mix cultures were prepared from P0 rat brains. The harvested cerebral cortex was mechanically triturated in glia culture medium (GCM), comprising DMEM supplemented with 10% FBS. The mixture was stationed at room temperature for 1 minute, and the supernatant centrifuged at 1,500 rpm to obtain the cell pellet. The pellet was resuspended in GCM and seeded onto 24-well plates coated with poly-L-lysine (0.1 mg/mL). The culture medium was replaced with an embodiment of the GNCM medium of the present invention comprising a 1:1 mixture of GCM and B-27-containing Neurobasal™ 1 hour after the initial seeding.
The day of cell plating was considered as 0 DIV, and 9-10 DIV cultures were used for the experiments.
Primary rat cortical GN mix and NE cultures at 9 days in vitro were pretreated with 0.1 μM 14,15-EET, 10 μM 12-(3-adamantan-1-yl-ureido)-dodecanoic acid (AUDA), or vehicle for 30 min, and then treated with or without 14,15-epoxyeicosa-5(Z)-enoic acid (14,15-EEZE) (EZ) or N-methyl-D-aspartate (NMDA). Representative immunofluorescent images of MAP2 and TUNEL staining in GN mix and NE cultures were treated as indicated for 24 h. Total cell nuclei were counterstained with DAPI. Scale bar=50 μm.
Neuron dendrites were marked with MAP2 and colored in red, cell nuclei were marked with DAPI and colored in blue, while cell death was marked with TUNEL and colored in green.
Both MAP2^+ neurite density and TUNEL^+ cells were normalized by the total DAPI number in each quantified microscopic field.

Assay [2] relates to dorsal hippocampus of male SD adult rats. Description: kainic acid i.c.v. injection-induced hippocampal damage, NeuN, MAP2 and GLT-1 immunostaining. It counts as in vivo, rat. As for the experimental part: To validate the in vitro results, the effect of sEH inhibition on neuronal loss in the hippocampus after excitotoxic insult was investigated in vivo. First examined was the effect of CNS administration of AUDA on kainic acid (KA), an epileptic seizure-inducing substance, i.c.v. injection-induced hippocampal damage in male SD adult rats. The extent of neuronal damage in the dorsal hippocampus was examined 24 h after the KA injection by immunostaining with NeuN and MAP2 for neuronal nuclei and dendrites, respectively.
Eight-week-old male SD rats were subjected to unilateral i.c.v. injection of saline, KA, or KA with the sEH inhibitor AUDA. Rat brains were harvested 24 h after the injection for immunohistochemistry.
NeuN^+ cells of each hippocampal subregion were determined by counting the number of NeuN^+/DAPI^+ cells and then normalized with respective saline treatment group. MAP2 area was determined by the percentage of the immunoreactive area in each hippocampal region of interest and then normalized with the respective saline treatment group. […] Scale bar=100 μm. When compared with FIGS. 20-23, it can be seen that the results of in vivo trials were more similar to those of the GN culture than the NE culture.
FIG. 27 is a quantitative analysis of images in FIG. 25. GLT-1 area was determined by the percentage of the immunoreactive area in each hippocampal region of interest and then normalized with the respective saline treatment group. Note that GLT-1 immunoreactivity was depleted in the stratum pyramidale (SP) and stratum lucidum (SL) layers of CA3 in the KA treatment group, and the effect was attenuated by the AUDA pretreatment.

The subject of a further assay is Oligodendrocytes. Description: excitotoxic NMDA treatment of oligodendrocytes in GN mix culture (RIP/NF200 staining). It counts as cell-based, mouse. Conditions: NM:GCM 1:1 medium, 5 μM NMDA at 14 DIV for 24 hour. The procedure: Oligodendrocytes obtained from mouse primary neonatal brain cells cultivated using the GN culture compositions provided in table 4 were treated with 5 μM NMDA at 14 DIV for 24 hour.
The cell nuclei are characterized by immunostaining shown in blue. […] Moreover, the response of oligodendrocytes to excitotoxic NMDA treatment can further mimic excitotoxicity-induced demyelination.

The target in assay [3] is T1, aryl hydrocarbon receptor (AHR) (Mus musculus, UniProt P30561).
T1 construct: the brains of adult mice were used to study the effect of aryl hydrocarbon receptor modulation; from tissue; host or cells: adult mouse brain, peri-infarct cortex (in vivo)
T1 sequence (P30561 10-848): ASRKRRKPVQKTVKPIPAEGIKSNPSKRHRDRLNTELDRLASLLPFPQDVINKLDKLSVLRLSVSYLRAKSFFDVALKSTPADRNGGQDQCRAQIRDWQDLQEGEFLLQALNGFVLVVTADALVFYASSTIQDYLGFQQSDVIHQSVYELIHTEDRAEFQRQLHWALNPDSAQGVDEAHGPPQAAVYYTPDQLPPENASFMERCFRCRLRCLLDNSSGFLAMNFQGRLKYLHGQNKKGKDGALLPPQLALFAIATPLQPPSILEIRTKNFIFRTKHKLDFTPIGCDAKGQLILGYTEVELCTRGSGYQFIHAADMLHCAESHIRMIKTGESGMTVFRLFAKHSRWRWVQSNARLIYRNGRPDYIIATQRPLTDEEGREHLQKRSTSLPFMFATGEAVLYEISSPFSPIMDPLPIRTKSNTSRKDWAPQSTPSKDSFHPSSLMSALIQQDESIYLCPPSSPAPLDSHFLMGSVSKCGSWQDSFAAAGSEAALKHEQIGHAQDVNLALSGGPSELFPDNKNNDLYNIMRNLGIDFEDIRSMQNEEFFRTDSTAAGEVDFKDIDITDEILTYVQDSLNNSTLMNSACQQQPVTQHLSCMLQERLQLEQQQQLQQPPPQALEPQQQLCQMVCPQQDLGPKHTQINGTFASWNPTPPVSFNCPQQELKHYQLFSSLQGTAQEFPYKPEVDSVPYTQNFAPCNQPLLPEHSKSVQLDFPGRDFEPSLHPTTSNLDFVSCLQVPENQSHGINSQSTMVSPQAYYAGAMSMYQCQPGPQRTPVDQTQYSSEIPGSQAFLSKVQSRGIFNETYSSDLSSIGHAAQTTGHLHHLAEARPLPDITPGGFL
Conditions: WT mice, cited from earlier work.

The test system of assay [4] is rat cerebral cortex cells. Description: LPS neuroinflammation in cerebral cortex cells cultured in the media of Table 3. Conditions: for percentages of MAP2 positive cells in the total population (neurons): 1 μg/mL LPS for 24 hours on day 13. The assay is classed as cell-based. An excerpt: The efficacies of simulating in vivo cell morphology, cell interactions and responses to stimuli in vitro using mGNCM of different ratios of modified neuron medium (mNM) and glia culture medium (GCM) were compared, 1:1:, 2:1 and GCM only groups, and the GCM only group comprising only GCM and 10% FBS as shown in Table 3 above.
The effects of neuroinflammation simulation of rat cerebral cortex cells grown in vitro using the three embodiments of mGNCM of Table 3 were examined. Cells obtained from rat cerebral cortex were cultured in vitro for 13 days using the three culture media above, then treated with 1 μg/mL of lipopolysaccharides (LPS) for 24 hours on day 13 to trigger inflammation. Following LPS treatment, immunostaining was performed to observe cell population, morphology, and response to inflammatory stimulus.
The immunostaining images of FIG. 5 show neuronal population and response to LPS stimulation, wherein CTL represents control groups (not subjected to LPS treatment) and LPS represents groups treated with LPS to induce neuroinflammation. The images show astrocyte cytoskeleton marked with GFAP and colored in red, neuron dendrites marked with MAP2 and colored in green, as well as cell nuclei marked with DAPI and colored in blue. FIGS. 5A1-5A3 and 5B1-5B3 show cells cultured with GCM only, FIGS. 5C1-5C3 and 5D1-5D3 show cells cultured with 1:1 mNM and GCM, while FIGS. 5E1-5E3 and 5F1-5F3 show cells cultured with 2:1 mNM and GCM. The GCM only group comprises fewer neurons, and the cells are smaller and unhealthier in both CTL and LPS treatment groups.

Assay [5] has as its system cells extracted from rat cerebral cortex. Description: LPS neuroinflammation and cell type population in glia cell and neuron co-culture in the media of Table 4. It counts as cell-based. As for the experimental part: To further examine the effects of various embodiments of mGNCM with different ratios of mNM and GCM of the present invention on cell type population and morphology of rat glia cells and neurons co-culture, six cell culture media were prepared to the specifications of Table 4.
On postnatal day 0 (P0), cells extracted from rat cerebral cortex were inoculated in each of the cell culture media of Table 4. Following 14 days of in vitro cultivation, immunostaining was performed on the control groups (CTL) to aid in the observation of cell type ratios, specifically of neurons, astrocytes, and microglia, and oligodendrocytes as well as cell morphology. Cultures of the LPS groups (LPS) were subjected to inflammatory stimulation via 1 μg/mL LPS at 13 days in vitro. After another 24 hours, the LPS groups were subjected to immunostaining as well, for the observation of cell morphology and cell count.

The next assay deals with mouse hippocampi. Briefly: intraperitoneal LPS injection, astrocyte and microglia plasticity in hippocampi. The assay is classed as in vivo. To be noted: LPS i.p. for 7 days at 3 mg/kg body weight per injection, vs saline. The procedure:
To validate the results of in vitro LPS treatment of the present invention, LPS was injected intraperitoneally in mice for 7 days at 3 mg/kg body weight per injection and the astrocyte and microglia plasticity in mouse hippocampi examined. […] Astrocytes were marked with GFAP and colored in green, while cell nuclei were marked with DAPI and colored in blue.
Microglia were marked with Iba-1 and colored in green, while cell nuclei were marked with DAPI and colored in blue.

Setting [6] is: DGh and CA3, unilateral i.c.v. injection, 24 h after injection.
Setting [7] is: DGh and CA3, KA i.c.v. vs saline, 24 h.
[8] abbreviates: TMF 5 mg/kg/day intraperitoneally, 48 h after MCAO.
[9] abbreviates: all groups except for the GCM only group, 1 μg/mL LPS, 24 hours.

`CCCCCC1OC1CC=CCC=CCC=CCCCC(=O)O` (stereo not shown) [14,15-EET, 14,15-epoxyeicosatrienoic acid]: in assay [1], the “NMDA-induced MAP2+ neurite reduction” value is listed as “significantly attenuated” and the “NMDA-induced cell death (TUNEL+ cells)” value is reported as “significantly attenuated”.

`O=C(O)CCCCCCCCCCCNC(=O)NC12CC3CC(CC(C3)C1)C2` [AUDA, 12-(3-adamantan-1-yl-ureido)-dodecanoic acid]: in assay [1], the “NMDA-induced MAP2+ neurite reduction” value is “significantly attenuated” and the “NMDA-induced cell death (TUNEL+ cells)” value is “significantly attenuated”. In addition, in assay [2] (setting [6]), the “KA-induced MAP2+ dendrite damage” value is reported as “significantly attenuated” and the “KA-induced NeuN+ cell loss” value was “significantly attenuated”. In addition, the “KA-induced depletion of GLT-1 immunoreactivity” value in assay [2] (SP and SL layers of CA3, AUDA pretreatment) is reported as “attenuated”.

In the case of `C=C(C)[C@H]1CN[C@H](C(=O)O)[C@H]1CC(=O)O` [KA, kainic acid], in assay [2] (setting [7]), the “MAP2+ dendrite area” value is “significantly reduced” and the “NeuN+ neurons” value was “significantly reduced”. Moreover, the GLT-1 immunoreactivity entry in assay [2] (SP and SL layers of CA3, KA treatment group) is “depleted”.

On to `CN[C@H](CC(=O)O)C(=O)O` [NMDA, N-methyl-D-aspartate], for which the “oligodendrocyte process extension and arborization” value in the assay on Oligodendrocytes was “disrupts”.

`COc1ccc(-c2cc(=O)c3cc(OC)ccc3o2)c(OC)c1` [TMF, 6,2′,4′-trimethoxyflavone]: in assay [3] (setting [8]), the “GFAP-positive astrogliosis at the peri-infarct cortex after MCAO” value is listed as “markedly decreased” and the “Iba1-positive microgliosis at the peri-infarct cortex after MCAO” value is on record as “markedly decreased”. Besides, in assay [3] (TMF-treated vs vehicle-treated, peri-infarct cortex), the “AHR immunoreactivity colocalized within Iba1-positive microglia and GFAP-positive astrocytes after MCAO” value is recorded as “markedly decreased”.

For the compound lipopolysaccharides [LPS], the “astrocyte hypertrophy (GFAP)” value in assay [4] (1:1 group and 2:1 group, 1 μg/mL LPS for 24 hours) is “can be found”; in assay [4] (GCM only group, 1 μg/mL LPS for 24 hours) it was “not observed”. Further, the “microglia cell density and cell size (Iba1)” value in assay [4] (1:1 group, 1 μg/mL LPS for 24 hours) is listed as “marked increase”. The “percentages of MAP2 positive cells in the total population (neurons)” value in assay [4] (1:1 group) is given as “induces neuronal loss”; in assay [4] (GCM only and 2:1 groups) it was “not affected in this way”. Besides, the “Iba1 positive area per cell, control vs LPS groups” value in assay [5] (1:1, 2:1, and 4:1 groups, 1 μg/mL LPS, 24 hours) was “significant differences”. For the same compound, the “percentage of neurons in total cells (MAP2-circled cells in total DAPI)” value is on record as “significant neuronal loss” in assay [5] (2:1 mGNCM group, 1 μg/mL LPS, 24 hours) and “reduced” in assay [5] (setting [9]). Besides, the “microglia morphology (Iba1)” value in assay [5] (setting [9]) is given as “induces microglial hypertrophy (microgliosis)”. In addition, the “oligodendrocyte (OL) cell density” value in assay [5] (different groups of GN mix cultures, 1 μg/ml LPS) is listed as “does not affect”. Also, the “percentage of astrocytes in total cells (GFAP-circled cells in total DAPI)” value in assay [5] (groups of Table 4, 1 μg/mL LPS, 24 hours) was “does not cause significant proliferation or death of astrocytes”. Further, the oligodendrocyte process shrinkage result in assay [5] (mNM:GCM 0.5:1 and 1:1 media, 1 μg/ml LPS) is on record as “can be observed”. In addition, the “percentage of microglia in total cells (Iba1 positive cells in total DAPI)” value in assay [5] (mNM:GCM 1:1 medium only, 1 μg/mL LPS, 24 hours) is given as “induces significant microglia proliferation”. Also, the “microglia number (Iba1 images)” value in assay [5] (mNM:GCM 2:1 co-culture system, 1 μg/mL LPS, 24 hours) is “induces an increase of microglia”. In assay [5] (media of Table 4, 1 μg/mL LPS at 13 DIV, 24 hours), the “astrocyte morphology (GFAP)” value is “induces astrocyte hypertrophy and process arborization”. Besides, in the assay on mouse hippocampi, the “astrocyte plasticity (GFAP) in hippocampal CA1 and CA3” value was “induced astrocyte hypertrophy and proliferation”. In addition, the “microglia plasticity (Iba-1) in hippocampal CA1” value in the assay on mouse hippocampi was “induced microglial hypertrophy and proliferation”.
